Source: patent US20250163051A1, “PYRIMIDO AROMATIC RING COMPOUND AND USE THEREOF IN DRUG” (SUNSHINE LAKE PHARMA CO., LTD., priority 2022, published 2025)

What was measured:
hTLR7 = biological target: T1, hTLR7 (Homo sapiens, UniProt Q9NYK1); assay: Agonistic activity on human TLR7 in HEK-Blue hTLR7 cells (QUANTI-Blue); assay type: cell-based; conditions: 24 h incubation, OD650, read-out: hTLR 7 EC50
T1 construct: expressed in transfected cells; host or cells: HEK-Blue hTLR7 cells
T1 sequence (Q9NYK1 27-1049): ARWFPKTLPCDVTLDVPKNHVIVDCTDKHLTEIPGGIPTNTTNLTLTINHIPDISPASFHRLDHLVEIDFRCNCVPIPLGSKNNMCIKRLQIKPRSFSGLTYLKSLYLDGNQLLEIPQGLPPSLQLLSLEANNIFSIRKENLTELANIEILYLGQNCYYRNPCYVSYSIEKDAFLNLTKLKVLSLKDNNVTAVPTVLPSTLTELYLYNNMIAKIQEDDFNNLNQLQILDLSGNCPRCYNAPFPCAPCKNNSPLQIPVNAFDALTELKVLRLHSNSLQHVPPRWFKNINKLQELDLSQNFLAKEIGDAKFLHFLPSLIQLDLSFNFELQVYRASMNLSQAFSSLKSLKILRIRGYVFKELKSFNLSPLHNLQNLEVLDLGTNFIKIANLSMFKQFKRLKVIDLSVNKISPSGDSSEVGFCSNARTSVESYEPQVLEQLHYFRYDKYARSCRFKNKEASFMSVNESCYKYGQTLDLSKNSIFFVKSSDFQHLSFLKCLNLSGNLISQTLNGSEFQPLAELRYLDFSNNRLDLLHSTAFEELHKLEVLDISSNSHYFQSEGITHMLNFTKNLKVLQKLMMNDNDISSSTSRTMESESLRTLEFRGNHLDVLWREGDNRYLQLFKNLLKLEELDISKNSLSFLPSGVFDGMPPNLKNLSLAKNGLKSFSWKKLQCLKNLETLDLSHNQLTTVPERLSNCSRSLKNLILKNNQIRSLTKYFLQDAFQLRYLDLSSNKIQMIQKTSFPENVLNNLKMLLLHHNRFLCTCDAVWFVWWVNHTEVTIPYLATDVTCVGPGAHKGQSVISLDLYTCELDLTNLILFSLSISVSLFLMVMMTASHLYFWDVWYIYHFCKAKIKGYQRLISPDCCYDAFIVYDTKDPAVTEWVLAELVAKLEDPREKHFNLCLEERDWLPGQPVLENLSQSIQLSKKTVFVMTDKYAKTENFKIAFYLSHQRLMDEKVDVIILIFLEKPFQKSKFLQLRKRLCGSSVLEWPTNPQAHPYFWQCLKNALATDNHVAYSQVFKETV
Protocol: (§1) Purpose: HEK-Blue™ hTLR7 and HEK-Blue™ hTLR8 cells were used to detect the agonist and cytotoxic activities of compounds against hTLR7 and hTLR8.
(§2) The experimental steps were as shown below: • 1) Preparation of compound: The compound was prepared into a 20 mM stock solution with DMSO, and then the stock solution was diluted 3-fold in a gradient and added to a 96-well plate, for a total of 10 concentrations, with duplicate wells for each concentration. For negative control wells, 0.5 μL DMSO was added to each well. The final DMSO concentration was 0.5%. • 2) HEK-Blue™ hTLR7 or HEK-Blue™ hTLR8 cells were suspended in culture medium and then seeded into 96-well plates containing compounds at a cell count of 50,000 per well. The compounds and cells were incubated for 24 h at 37° C., 5% Co2. • 3) QUANTI-Blue was used for the detection solution: to a mixture of 1 mL of QB reagent and 1 mL of QB buffer was added 98 mL of sterile water, the mixture was mixed and dissolved, and then placed at room temperature for 10 min. • 4) Activity test of the compound: 20 μL of the culture supernatant in step 2) was added to each well of a 96-well plate containing 180 μL of QUANTI-Blue detection solution. After incubation at 37° C. for 1 h, the absorbance at 650 nm (OD650) was detected using a multifunctional microplate reader Flextation III. • 5) Detection of cell activity: The chemiluminescent signal (RLU) was detected using the multifunctional microplate reader Flextation III according to the instructions of Celltiter-Glo. • 6) Data analysis
(§3) Activity of compounds: OD650 values were analyzed using GraphPad Prism software, and the compound dose-effect curves were fitted to calculate the EC50 values of the compounds.

hTLR8 = biological target: T2, hTLR8 (Homo sapiens, UniProt Q9NR97); assay: Agonistic activity on human TLR8 in HEK-Blue hTLR8 cells (QUANTI-Blue); assay type: cell-based; conditions: 24 h incubation, OD650, read-out: hTLR 8 EC50
T2 construct: expressed in transfected cells; host or cells: HEK-Blue hTLR8 cells
T2 sequence (Q9NR97 27-1041): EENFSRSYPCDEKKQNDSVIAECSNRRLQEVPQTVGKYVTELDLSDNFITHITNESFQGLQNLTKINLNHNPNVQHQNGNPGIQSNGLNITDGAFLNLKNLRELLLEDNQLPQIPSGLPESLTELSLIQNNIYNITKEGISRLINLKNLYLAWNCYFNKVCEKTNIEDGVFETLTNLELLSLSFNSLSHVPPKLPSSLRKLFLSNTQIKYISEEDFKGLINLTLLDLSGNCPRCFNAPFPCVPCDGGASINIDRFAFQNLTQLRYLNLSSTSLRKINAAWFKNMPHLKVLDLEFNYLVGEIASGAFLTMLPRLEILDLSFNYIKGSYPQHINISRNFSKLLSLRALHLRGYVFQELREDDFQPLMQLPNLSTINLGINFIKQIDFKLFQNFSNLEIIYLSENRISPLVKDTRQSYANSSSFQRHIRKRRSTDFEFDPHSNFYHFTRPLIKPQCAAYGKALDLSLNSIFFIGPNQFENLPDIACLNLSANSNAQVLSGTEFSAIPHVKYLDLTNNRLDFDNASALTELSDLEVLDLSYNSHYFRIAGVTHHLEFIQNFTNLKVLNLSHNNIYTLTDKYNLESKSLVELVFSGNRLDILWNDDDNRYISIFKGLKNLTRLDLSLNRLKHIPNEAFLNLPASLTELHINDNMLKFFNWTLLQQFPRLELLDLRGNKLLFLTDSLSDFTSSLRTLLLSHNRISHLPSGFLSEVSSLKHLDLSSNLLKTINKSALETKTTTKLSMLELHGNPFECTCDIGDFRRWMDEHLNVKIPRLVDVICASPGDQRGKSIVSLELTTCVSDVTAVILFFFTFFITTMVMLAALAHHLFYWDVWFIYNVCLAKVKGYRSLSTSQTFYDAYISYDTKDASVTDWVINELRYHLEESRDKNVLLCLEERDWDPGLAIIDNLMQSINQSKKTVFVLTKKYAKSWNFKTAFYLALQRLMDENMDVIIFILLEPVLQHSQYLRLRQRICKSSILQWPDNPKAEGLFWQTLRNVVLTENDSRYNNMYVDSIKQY
Protocol: as §1, §2, §3

[1] = Cell toxicity (Celltiter-Glo) in HEK-Blue hTLR8 cells; conditions: human
Protocol: as §1, §2
Detection of cell activity: The calculation formula for cell activity % is as follows.
The cell activity % values were analyzed using GraphPad Prism software, and the compound dose-effect curves were fitted to calculate the CC50 values of the compounds.
Cell activity %=RLU compound/RLU DMSO Control*100%

| SMILES | EC50 (hTLR7) [µM] | EC50 (hTLR8) [µM] | CC50 at 24 h [1] [µM] |
| --- | --- | --- | --- |
| C=CCCN(C)Cc1c[nH]c(=O)cc1-c1cnc2c(N[C@@H](CO)CCCC)nc(N)nc2c1 [Example 42, (R)-4-(2-Amino-4-((1-hydroxyhexan-2-yl)amino)pyrido[3,2-d]pyrimidin-7-yl)-5-((but-3-en-1-yl (methyl)amino)methyl)pyridin-2(1H)-one] | > 100 | 0.595 | > 100 |
| CCCC[C@](C)(CO)Nc1nc(N)nc2cc(-c3cc(=O)[nH]cc3CN3CCOCC3)cnc12 [Example 24] | > 100 | 0.239 | > 100 |
| CCCC[C@](C)(CO)Nc1nc(N)nc2cc(-c3cc(=O)[nH]cc3CN3CCN(C(C)(C)C)CC3)cnc12 [Example 23] | > 100 | 0.291 | > 100 |
| CC#CCN(C)Cc1c[nH]c(=O)cc1-c1cnc2c(N[C@@](C)(CO)CCCC)nc(N)nc2c1 [Example 27] | > 100 | 4.25 | > 100 |
| CCCC[C@](C)(CO)Nc1nc(N)nc2cc(-c3cc(=O)[nH]cc3CNCCOC)ccc12 [Example 57, (R)-4-(2-Amino-4-((1-hydroxy-2-methylhexan-2-yl)amino)quinazolin-7-yl)-5-(((2-methoxyethyl)amino)methyl)pyridin-2(1H)-one] | > 100 | 1.86 | > 100 |
| CCCC[C@](C)(CO)Nc1nc(N)nc2cc(-c3cc(=O)[nH]cc3CN3CCSCC3)cnc12 [Example 25] | > 100 | 0.13 | > 100 |
| CCCC[C@](C)(CO)Nc1nc(N)nc2cc(-c3cc(=O)[nH]cc3CN(C)C)ccc12 [Example 67, (R)-4-(2-Amino-4-((1-hydroxy-2-methylhexan-2-yl)amino)quinazolin-7-yl)-5-((dimethylamino)methyl)pyridin-2(1H)-one] | > 100 | 0.056 | > 100 |
| CCCCNCc1c[nH]c(=O)cc1-c1ccc2c(N[C@@](C)(CO)CCCC)nc(N)nc2c1 [Example 58, (R)-4-(2-Amino-4-((1-hydroxy-2-methylhexan-2-yl)amino)quinazolin-7-yl)-5-((butylamino)methyl)pyridin-2(1H)-one] | > 100 | 0.918 | > 100 |
| C=CCCN(C)C(=O)c1c[nH]c(=O)cc1-c1cnc2c(N[C@@](C)(CO)CCCC)nc(N)nc2c1 [Example 38, (R)-4-(2-Amino-4-((1-hydroxy-2-methylhexan-2-yl)amino)pyrido[3,2-d]pyrimidin-7-yl)-N-(but-3-en-1-yl)-N-methyl-6-oxo-1,6-dihydropyridine-3-carboxamide] | > 100 | 2.99 | > 100 |
| CCCC[C@](C)(CO)Nc1nc(N)nc2cc(-c3cc(=O)n(C)cc3CNCCOC)ccc12 [Example 61, (R)-4-(2-Amino-4-((1-hydroxy-2-methylhexan-2-yl)amino)quinazolin-7-yl)-5-(((2-methoxyethyl)amino)methyl)-1-methylpyridin-2(1H)-one] | > 100 | 0.418 | > 100 |
| C=CCC(=O)N(C)Cc1c[nH]c(=O)cc1-c1cnc2c(N[C@@](C)(CO)CCCC)nc(N)nc2c1 [Example 40, (R)—N-((4-(2-Amino-4-((1-hydroxy-2-methylhexan-2-yl)amino)pyrido[3,2-d]pyrimidin-7-yl)-6-oxo-1,6-dihydropyridin-3-yl)methyl)-N-methylbut-3-enamide] | > 100 | 1.52 | > 100 |
| C=CCCN(Cc1c[nH]c(=O)cc1-c1cnc2c(N[C@@](C)(CO)CCCC)nc(N)nc2c1)C(C)C [Example 19] | > 100 | 0.255 | > 100 |
| C=CCCN(C)Cc1cn(C)c(=O)cc1-c1cnc2c(N[C@](C)(CCCC)CNC(=O)c3cnn(C)c3)nc(N)nc2c1 [Example 45] | > 100 | 0.097 | > 100 |

Second part, led by results:

| EC50 (hTLR7) [µM] | EC50 (hTLR8) [µM] | SMILES | CC50 at 24 h [1] [µM] |
| --- | --- | --- | --- |
| > 100 | 2.85 | CCCC[C@](C)(CO)Nc1nc(N)nc2cc(-c3cc(=O)[nH]cc3CN(C)CCNC)cnc12 [Example 20] | > 100 |
| > 100 | 0.288 | CCCCN(CCCC)Cc1c[nH]c(=O)cc1-c1cnc2c(N[C@@](C)(CO)CCCC)nc(N)nc2c1 [Example 14] | > 100 |
| > 100 | 0.98 | CCCC[C@](C)(CO)Nc1nc(N)nc2cc(-c3cc(=O)[nH]cc3CN3CCN(C)CC3)cnc12 [Example 22] | > 100 |
| 81.5 | 1.73 | C=CCCN(CCC=C)Cc1c[nH]c(=O)cc1-c1cnc2c(N[C@@](C)(CO)CCCC)nc(N)nc2c1 [Example 13] | 97.3 |
| 29.9 | 0.354 | C=CCCOCc1c[nH]c(=O)cc1-c1cnc2c(N[C@@](C)(CO)CCCC)nc(N)nc2c1 [Example 41, (R)-4-(2-Amino-4-((1-hydroxy-2-methylhexan-2-yl)amino)pyrido[3,2-d]pyrimidin-7-yl)-5-((but-3-en-1-yloxy)methyl)pyridin-2(1H)-one] | > 100 |
| 14.2 | 0.042 | CCCC[C@](C)(CO)Nc1nc(N)nc2cc(-c3cc(=O)[nH]cc3COC)ccc12 [Example 68, (R)-4-(2-Amino-4-((1-hydroxy-2-methylhexan-2-yl)amino)quinazolin-7-yl)-5-(methoxymethyl) pyridin-2(1H)-one] | > 100 |
| 18.4 | 0.03 | CCCC[C@](C)(CO)Nc1nc(N)nc2cc(-c3cc(=O)[nH]cc3CSC)cnc12 [Example 52, (R)-4-(2-Amino-4-((1-hydroxy-2-methylhexan-2-yl)amino)pyrido[3,2-d]pyrimidin-7-yl)-5-((methylthio)methyl)pyridin-2(1H)-one] | > 100 |
